# From patent publication US9988371B2, “Benzimidazole analogues and related methods” (The Arizona Board of Regents, on Behalf of the University …, priority 2014, dated 2018)
# Entries after “also recorded” stand apart in the source; their conditions may differ.
# Legend:
# [1] = test system: RET (RET/C634Y, RET/M918T, RET/C634W, RET/PTC1, RET/PTC3, KIF5B-RET, RET/C634R-V804M); experiment: RET auto-phosphorylation immunoblot, all cell lines and mutations tested; type: cell-based
# Method: FIG. 1: Photographs of blots showing inhibition of phosphorylation of RET/C634Y and RET/M918T in intact cells by Pz-1 or vehicle (NT: not treated). Serum-starved NIH3T3 cells expressing RET/C634Y or RET/M918T mutants were treated for 2 hr with indicated concentrations of Pz-1. 50 μg of total cell lysates were subjected to immunoblotting with anti-phospho-Y1062 (αp1062) or anti-phospho-Y905 (αp905) RET antibodies. The blots were normalized using anti-RET (αRET) antibodies.
# FIG. 2: Photographs of blots showing inhibition of phosphorylation of gate-keeper RET point mutant and rearranged RET oncoproteins by Pz-1 or vehicle (NT: not treated). HEK293 cells were transiently transfected with vectors expressing RET/C634R-V804M mutant (V804 is the gate-keeper RET residue), or RET/PTC1 (CCDC6-RET, found in papillary thyroid carcinoma and lung adenocarcinoma), RET/PTC3 (NCOA4-RET, found in papillary thyroid carcinoma and lung adenocarcinoma), or KIF5B-RET (found in lung adenocarcinoma). After 36 hr from transfection, cells were serum-starved for 12 hr and then treated for 2 hr with indicated concentrations of Pz-1. 50 μg of total cell lysates were subjected to immunoblotting with anti-phospho-Y1062 (αp1062) and anti-phospho-Y905 (αp905) RET antibodies. The blots were normalized using anti-RET (αRET) antibody.
# FIG. 3: Photographs of blots showing inhibition of RET protein endogenously expressed in TT cells (human MTC cell line expressing RET/C634W) by indicated concentrations of Pz-1 or vehicle (NT: not treated) and reduced effects in thyroid non-transformed Nthy-ori-3-1 cells. […]
# The inhibition of RET auto-phosphorylation by Pz-1 was measured in several different cell lines including NIH3T3 fibroblasts expressing RET/C634Y or RET/M918T, TT expressing RET/C634W (MTC), Nthy-ory-3-1 (thyroid, non-transformed with RET; negative control), HEK293/RET/PTC1 (CCDC6-RET that can be found in PTC & lung cancer), HEK293/RET-KIF5B (that can be found in lung cancer), HEK293/RET/PTC3 (NCOA4-RET, that can be found in PTC & lung cancer), and HEK293 transfected with RET/C634R-V804M (FIGS. 1-3). […]
# [2] = target: T1, VEGFR2 (Mus musculus, UniProt P35918); experiment: In vivo target inhibition, pVEGFR2 in RET/C634Y-induced tumors; set-up: species or system nude mice; conditions: 48 hr, 1.0 or 3.0 mg/kg daily
# T1 construct: from tissue; host or cells: subcutaneous tumours (NIH3T3 RET/C634Y or NIH3T3 HRAS/G12V) in BALB/c nu/nu mice
# Method: FIG. 9: Photographs of blots showing effects of Pz-1 on cellular phosphorylation events in tumors induced in nude mice (from FIG. 8) by injection of NIH3T3 fibroblasts transformed by RET/C634Y or HRAS/G12V. […] Some of the vehicle-treated tumors, at the end of the tumor growth experiment described in FIG. 8, were treated for 48 hr with different doses of Pz-1 (TR) or left untreated (NT). At the end of the treatment, 50 μg of tumor protein lysates were subjected to immunoblotting with anti-phospho-Y1062 (αp1062) and anti-phospho-905 (αpY905) RET antibodies, anti-phospho-MAPK (αpMAPK, T302/Y304), anti-phospho-SHC (αpSHC, Y317), anti-phospho-p70S6K (αpp70S6K, T389), anti-phospho-S6RP (αpS6RP, S235/S236), and anti-phospho-VEGFR2 (αpVEGFR2 pY1175) antibodies. The blots were normalized using anti-RET (αRET), anti-SHC (αSHC), anti-MAPK (αMAPK), anti-p70S6K (αp70S6K), anti-S6RP (αS6RP) or anti-VEGFR2 (αVEGFR2) antibodies.
# Some of the vehicle-treated tumors, at the end of the tumor growth experiment reported in FIG. 8, were treated for 48 hr with different doses of Pz-1 (1.0 or 3.0 mg/kg daily) or left untreated. […]
# T1 sequence (P35918 20-1345): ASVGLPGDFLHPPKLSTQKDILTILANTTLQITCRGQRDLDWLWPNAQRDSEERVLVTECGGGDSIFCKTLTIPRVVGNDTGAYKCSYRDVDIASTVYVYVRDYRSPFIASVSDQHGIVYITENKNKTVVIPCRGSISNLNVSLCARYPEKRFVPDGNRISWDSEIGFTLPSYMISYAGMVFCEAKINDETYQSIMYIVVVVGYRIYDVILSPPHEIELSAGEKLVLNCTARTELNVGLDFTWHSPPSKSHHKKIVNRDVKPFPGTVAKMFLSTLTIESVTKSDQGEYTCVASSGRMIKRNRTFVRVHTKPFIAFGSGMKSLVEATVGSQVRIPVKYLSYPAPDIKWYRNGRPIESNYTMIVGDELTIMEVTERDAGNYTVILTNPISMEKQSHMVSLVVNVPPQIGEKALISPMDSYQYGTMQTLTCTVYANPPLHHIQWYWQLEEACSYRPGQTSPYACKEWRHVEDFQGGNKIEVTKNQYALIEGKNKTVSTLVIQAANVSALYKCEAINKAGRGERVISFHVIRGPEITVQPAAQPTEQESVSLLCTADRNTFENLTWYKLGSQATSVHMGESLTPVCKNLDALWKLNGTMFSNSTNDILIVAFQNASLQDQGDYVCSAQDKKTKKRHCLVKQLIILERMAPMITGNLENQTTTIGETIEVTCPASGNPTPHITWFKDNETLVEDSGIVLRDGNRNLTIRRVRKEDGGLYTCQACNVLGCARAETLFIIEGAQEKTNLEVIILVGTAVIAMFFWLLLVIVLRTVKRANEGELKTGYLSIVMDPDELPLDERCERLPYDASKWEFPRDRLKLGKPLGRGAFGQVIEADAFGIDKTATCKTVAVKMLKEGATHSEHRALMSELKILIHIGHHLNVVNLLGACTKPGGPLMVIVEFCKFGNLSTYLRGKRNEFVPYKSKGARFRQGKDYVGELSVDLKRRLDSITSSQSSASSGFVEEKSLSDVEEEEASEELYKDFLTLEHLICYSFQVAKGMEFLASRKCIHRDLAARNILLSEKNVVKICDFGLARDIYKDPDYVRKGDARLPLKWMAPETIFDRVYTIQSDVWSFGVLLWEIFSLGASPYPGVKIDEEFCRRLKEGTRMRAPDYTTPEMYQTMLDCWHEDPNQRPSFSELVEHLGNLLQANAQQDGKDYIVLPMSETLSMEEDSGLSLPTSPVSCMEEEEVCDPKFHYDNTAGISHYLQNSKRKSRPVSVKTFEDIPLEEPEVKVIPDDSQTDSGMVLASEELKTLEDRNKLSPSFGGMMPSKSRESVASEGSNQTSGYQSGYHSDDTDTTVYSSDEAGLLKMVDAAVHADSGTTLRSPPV
structure (smiles),measurement,setting,value
"Cn1cc(-c2ccc3c(c2)ncn3-c2ccc(CC(=O)Nc3cc(C(C)(C)C)on3)cc2)cn1 [Pz-1, N-(5-(tert-butyl)isoxazol-3-yl)-2-(4-(5-(1-methyl-1H-pyrazol-4-yl)-1H-benzo[d]imidazol-1-yl)phenyl)acetamide]",inhibition of pRET,"[1]; 1 nM, 2 hrs, all cell-lines",strong inhibition; also recorded: strongly inhibited
same,concentration at which potent on RET and all tested RET mutants including RET/V804M,[1]; FIGS. 1-3,less than 1 nM
same,inhibition of RET auto-phosphorylation,"[1]; nanomolar concentrations, all cell lines and mutations tested",90%
same,pVEGFR2 in tumors,[2],inhibited
